Data on one molecule can be found in article PMC11211671, “Phage‐displayed heptapeptide sequence conjugation significantly improves the specific targeting ability of antimicrobial peptides against Staphylococcus aureus” (mLife, 2024).

In series [1] the test system is BALB/c mice. As to the kind of experiment: Biosafety evaluation, tail vein injection. It is filed as in vivo, mouse. The note with it: tail vein 5 mg/kg once daily, 7 days, n = 6. As for the experimental part:
Twelve male BALB/c mice (weighing approximately 20 g) were randomly divided into two groups (control and peptide‐treated groups). Mice in the peptide‐treated group were injected intravenously into the tail vein with 5 mg/kg peptide solution once daily. In the control group, mice were injected once daily with saline via the tail vein. The experiment was continued for 7 days, and changes in body weight were recorded. Mice were anesthetized with ether and euthanized 12 h after the seventh tail vein injection. Blood was collected from the orbital vein and centrifuged, and the serum was analyzed biochemically. The livers and kidneys of mice were collected and weighed. The organs were then fixed in a 4% paraformaldehyde solution and analyzed by H&E staining.

The subject of series [2] is BALB/c mice. The experiment in a line: Biosafety evaluation, intraperitoneal injection. It is filed as in vivo, mouse. The note with it: i.p. 15 and 30 mg/kg once daily, 7 days, n = 6, except 15 mg/kg group for urea. As for the experimental part: Eighteen male BALB/c mice (weighing approximately 30 g) were randomly divided into three groups (control, low‐dose, and high‐dose groups). Mice in the low‐ and high‐dose groups were intraperitoneally injected with 15 and 30 mg/kg polypeptide solutions, respectively, once daily. Mice in the control group were injected intraperitoneally with 150 µl of saline once daily. The experiment lasted for 7 days, and the changes in the body weight of the mice were recorded. After the seventh intraperitoneal injection for another 12 h, the mice were anesthetized with ether and euthanized. Blood was collected from the orbital vein, and serum was analyzed by biochemical analysis after centrifugation. The livers and kidneys of mice were collected and weighed. Afterward, the organs were fixed in a 4% paraformaldehyde solution and stained with H&E for analysis.

The subject of series [3] is S. aureus 1882. It is filed as cell-based, Staphylococcus aureus. As for the experimental part:
(§1) MICs were determined to evaluate the antimicrobial activities of the peptides. The bacteria were inoculated into Mueller‐Hinton broth (MHB) medium in advance and placed in a shaker at 37°C until the logarithmic growth phase. The optical density value at OD600 of the bacterial suspension was adjusted to 0.4, and then diluted 1000 times with sterile MHB medium. Subsequently, the peptides with concentrations of 0.25–128 μM were prepared using bovine serum albumin (BSA) solution (0.2% BSA and 0.01% acetic acid) as the solvent on a 96‐well plate. Different concentrations of peptides and bacterial liquids were mixed in equal volumes. MHB medium containing bacteria was used as a positive control. MHB medium without bacteria was used as a negative control. Then, the mixture of peptides and bacteria was cultured in an incubator at 37°C for 18–24 h. The optical density of each well was measured at 492 nm using a microplate reader. The lowest drug concentration corresponding to a culture mixture with an optical density of less than 0.1 is the MIC of the peptide. The assay was repeated three times in duplicate.

Series [4] has as its system S. aureus 6538. It is filed as cell-based, Staphylococcus aureus. As for the experimental part:
as §1

The subject of series [5] is S. epidermidis 12228. It is filed as cell-based, Staphylococcus epidermidis. As for the experimental part: as §1
For series [6], the system named is E. coli K88. It is filed as cell-based, Escherichia coli. The settings on record: microbroth dilution, MHB, 37°C, 18–24 h, OD492 < 0.1; repeated three times in duplicate. As for the experimental part:
as §1
In general terms: In broth dilution the organism is exposed to a series of concentrations in liquid medium.

The subject of series [7] is E. coli 25922. It is filed as cell-based, Escherichia coli. As for the experimental part: as §1
Series [8] relates to E. coli K99. It is filed as cell-based, Escherichia coli. The settings on record: microbroth dilution, MHB, 37°C, 18–24 h, OD492 < 0.1; repeated three times in duplicate. As for the experimental part: as §1
Series [9] relates to S. aureus ATCC 6538. It is filed as cell-based, Staphylococcus aureus. The protocol: as §1
The assay was performed to analyze the salt ion stability of SFK2 by measuring changes in MIC values in different physiological salt concentrations, [46].

The test system of series [10] is red blood cells. It is filed as cell-based, pig. The protocol:
A series of parameters such as charge number, hydrophobicity, sequence length, and amphipathicity can affect the hemolytic activity of peptides against red blood cells. The minimal hemolytic concentration (MHC) refers to the minimum concentration that causes hemolysis of 10 % of red blood cells, and is often used to evaluate the hemolytic activity of the peptides. Except for SFK3, the percentage of hemolysis at 128 μM was below 5% for all peptides. Hemolysis of the erythrocytes occurred after incubation with Triton X‐100, with complete fragmentation of the erythrocytes and a bright red color of the reaction system (Figure 2B,C and Table S5).
The hemolytic activity of the peptide was calculated by measuring the level of […] released from mammalian red blood cell lysis induced by the peptide, [44]. Fresh porcine blood was collected from the jugular vein and washed with PBS three times, and red blood cells were collected. A red blood cell suspension of 10% (v/v) concentration was prepared in 10 mM PBS (pH = 7.4). After mixing with different concentrations of peptides in equal volume, they were incubated at 37°C for 2 h. Red blood cells treated with PBS and 0.1% Triton X‐100 were used as negative and positive controls, respectively. The assay was repeated three times. After the sample was centrifuged, the supernatant was transferred to a new 96‐well plate, and the optical density at 570 nm was measured using a microplate reader. Hemolysis was calculated as follows: Hemolytic activity(%)=ODtest sample−ODnegative control/ODpositive control−ODnegative control×100%

Series [11] has as its system P. aeruginosa 15442. It is filed as cell-based, Pseudomonas aeruginosa. As for the experimental part: as §1
The test system of series [12] is P. aeruginosa 27853. It is filed as cell-based, Pseudomonas aeruginosa. The protocol:
as §1

In brackets after ≈: the same amount, converted by molar mass. Peptide text beside a SMILES is read from it.

For `CC[C@H](C)[C@H](NC(=O)[C@H](CCCNC(=N)N)NC(=O)[C@H](CO)NC(=O)[C@H](CC(C)C)NC(=O)[C@H](Cc1ccccc1)NC(=O)[C@H](Cc1ccccc1)NC(=O)[C@H](Cc1ccccc1)NC(=O)CNC(=O)CNC(=O)CNC(=O)[C@H](CO)NC(=O)[C@H](C)NC(=O)[C@H](CCCNC(=N)N)NC(=O)[C@@H](NC(=O)[C@H](Cc1c[nH]c2ccccc12)NC(=O)[C@H](Cc1ccc(O)cc1)NC(=O)[C@@H](N)CO)C(C)C)C(=O)N[C@@H](Cc1ccccc1)C(=O)N[C@@H](CCCCN)C(=O)N[C@@H](CCCCN)C(N)=O` [SFK2] (H-SYWVRASGGGFFFLSRIFKK-NH2), the “Toxic side effects after tail vein injection” value in [1] is recorded as “negligible toxic side effects”. Further, the “Relative organ indices and liver- and kidney function-related indices (Crea, urea, AST, ALT, TBIL, ALP)” value in [2] is “no significant differences”. For the same molecule, in series [3], the “MIC S. aureus 1882” value came out at 2 µM (≈ 4.71 µg/mL). For the same molecule, the “MIC S. aureus 6538” value in [4] was 2 µM (≈ 4.71 µg/mL). Moreover, in series [5], the “MIC S. epidermidis 12228” value was above 64 µM. Besides, in series [6], the “MIC E. coli K88” value was above 64 µM. Besides, in [7], the “MIC E. coli 25922” value was above 64 µM. For the same molecule, the “MIC E. coli K99” value in series [8] is above 64 µM. For the same molecule, in series [9], the “MIC of SFK2 against S. aureus ATCC 6538, Control” value turned out to be 2 µM; the “MIC of SFK2 against S. aureus ATCC 6538, FeCl3” value is reported as 4 µM; the “MIC of SFK2 against S. aureus ATCC 6538, KCl” value turned out to be 4 µM; the “MIC of SFK2 against S. aureus ATCC 6538, MgCl2” value is recorded as 4 µM. Moreover, in [9], the “MIC of SFK2 against S. aureus ATCC 6538, NH4Cl” value is given as 4 µM; the “MIC of SFK2 against S. aureus ATCC 6538, NaCl” value was found to be 4 µM; the “MIC of SFK2 against S. aureus ATCC 6538, ZnCl2” value was found to be 2 µM. In addition, the MHC result in [10] is listed as “>128 μM”. In addition, the “MIC P. aeruginosa 15442” value in series [11] is above 64 µM. Further, the “MIC P. aeruginosa 27853” value in series [12] is above 64 µM.
